Assay results taken from ChEMBL document CHEMBL1201862, “PubChem BioAssay data set” (2004).
The source made the active and inactive calls.

Columns and labels:
Vero [1] = assay: cytotoxicity of synthesized analogs in Vero 76, SAR follow-up, cytotoxicity control for West Nile virus antiviral project, Vero 76 cells (AID 2414); format: functional, Chlorocebus sabaeus; details: Chlorocebus sabaeus, Vero
Vero [2] = assay: cytotoxicity of synthesized analogs in Vero cells, SAR follow-up, cytotoxicity control for West Nile virus antiviral project, cell-based, set II (AID 2402); format: functional, Chlorocebus sabaeus; details: Chlorocebus sabaeus, Vero
Vero [3] = assay: Vero E6 cell cytotoxicity, SAR follow-up, cytotoxicity control for West Nile virus antiviral project, synthesized analogs (AID 2244); format: functional; details: Chlorocebus sabaeus
[4] = A Cell Based Assay for the Identification of Probe candidate Compounds with Anti- Venezuelan Equine Encephalitis virus. [Related pubchem assays: 2409, 2419, 1621, 2238, 2405, 2024, 2065, 2402, 2414, 1635, 1650, 2244 ]; format: functional
[5] = biological target: T1, Ubiquitin-conjugating enzyme E2 N (Homo sapiens, UniProt P61088); format: functional;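 further: Dose-response confirmation in a TR-FRET assay detecting UBC13-driven polyubiquitin chain formation, inhibition measured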
T1 sequence (P61088 whole entry): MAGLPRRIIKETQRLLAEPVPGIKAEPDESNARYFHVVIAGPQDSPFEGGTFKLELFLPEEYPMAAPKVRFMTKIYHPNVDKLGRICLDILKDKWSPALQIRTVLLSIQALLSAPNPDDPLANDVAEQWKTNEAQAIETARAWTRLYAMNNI

[6] = biological target: DNA repair and recombination protein RAD54-like (Homo sapiens, UniProt Q92698); assay: inhibitors of human RAD54 branch migration, confirmation, biochemical, fluorescence, cherry-picked samples, dose series (AID 651657); format: functional
[7] = A cytotoxicity screen of small molecule inhibitors of the PhoP region in Salmonella typhi identified in the primary screen. [Related pubchem assays: 1850, 1864, 1985 ]; format: functional
[8] = A High Throughput Confirmatory Assay used to Identify Novel Compounds that Inhibit Mycobacterium Tuberculosis in the absence of Glycerol.; format: functional
Mucolipin-3 = Mucolipin-3 (Homo sapiens, UniProt Q8TDD5); assay: Dose response cell-based high-throughput screening assay for agonists of the transient receptor potential channel ML3 (TRPML3). [Related pubchem assays: 1526, 1424, 1448 ]; format: functional
Ion channel NompC = Ion channel NompC (Danio rerio, UniProt Q7T1G6); assay: Fluorescence counterscreen assay for TRPML3 agonists: dose response cell-based high-throughput screening assay to identify agonists of the transient receptor potential channel N1 (TRPN1). [Related pubchem assays: 1526, 1424, 1448 ]; format: functional
[9] = biological target: Transitional endoplasmic reticulum ATPase (Homo sapiens, UniProt P55072, C522A); assay: C522A mutant p97 ATPase inhibitors, dose response, counter-screen for p97 inhibitor project, biochemical, luminescence (AID 1544)
[10] = biological target: Transitional endoplasmic reticulum ATPase (Homo sapiens, UniProt P55072); assay: p97 ATPase inhibitors, dose response, biochemical (AID 1534)
[11] = biological target: Induced myeloid leukemia cell differentiation protein Mcl-1 (Homo sapiens, UniProt Q07820); format: functional
[12] = biological target: Glucose-6-phosphate 1-dehydrogenase (Homo sapiens, UniProt P11413); assay: human G6PD enzyme inhibitors, dose response, selectivity assay for P. falciparum G6PD inhibitor project, biochemical, fluorescence (AID 504792); format: functional
Beta-galactosidase = Beta-galactosidase (Escherichia coli, UniProt Q8VNN2); assay: beta-galactosidase enzyme inhibitors and activators, dose response, artefact control for CCR6 antagonist project, biochemical, E. coli enzyme, set 3 (AID 504712); format: functional
[13] = biological target: Heat shock protein HSP 90-alpha (Homo sapiens, UniProt P07900); format: functional, organism-based

Sequence of Mucolipin-3 (Q8TDD5 whole entry): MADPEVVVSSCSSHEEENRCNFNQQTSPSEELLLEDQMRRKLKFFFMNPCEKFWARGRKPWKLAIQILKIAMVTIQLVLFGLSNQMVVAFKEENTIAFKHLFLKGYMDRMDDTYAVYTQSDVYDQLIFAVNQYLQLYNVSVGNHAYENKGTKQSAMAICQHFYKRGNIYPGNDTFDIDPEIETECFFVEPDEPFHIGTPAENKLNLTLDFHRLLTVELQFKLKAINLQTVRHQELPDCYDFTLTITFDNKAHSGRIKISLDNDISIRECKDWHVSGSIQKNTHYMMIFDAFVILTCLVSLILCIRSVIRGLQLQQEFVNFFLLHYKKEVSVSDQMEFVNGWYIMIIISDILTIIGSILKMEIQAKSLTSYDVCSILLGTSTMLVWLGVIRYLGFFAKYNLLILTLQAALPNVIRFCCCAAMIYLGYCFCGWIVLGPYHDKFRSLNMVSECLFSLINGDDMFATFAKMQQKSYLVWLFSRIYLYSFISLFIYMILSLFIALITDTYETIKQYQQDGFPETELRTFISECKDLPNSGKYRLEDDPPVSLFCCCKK
Sequence of Ion channel NompC (Q7T1G6 whole entry): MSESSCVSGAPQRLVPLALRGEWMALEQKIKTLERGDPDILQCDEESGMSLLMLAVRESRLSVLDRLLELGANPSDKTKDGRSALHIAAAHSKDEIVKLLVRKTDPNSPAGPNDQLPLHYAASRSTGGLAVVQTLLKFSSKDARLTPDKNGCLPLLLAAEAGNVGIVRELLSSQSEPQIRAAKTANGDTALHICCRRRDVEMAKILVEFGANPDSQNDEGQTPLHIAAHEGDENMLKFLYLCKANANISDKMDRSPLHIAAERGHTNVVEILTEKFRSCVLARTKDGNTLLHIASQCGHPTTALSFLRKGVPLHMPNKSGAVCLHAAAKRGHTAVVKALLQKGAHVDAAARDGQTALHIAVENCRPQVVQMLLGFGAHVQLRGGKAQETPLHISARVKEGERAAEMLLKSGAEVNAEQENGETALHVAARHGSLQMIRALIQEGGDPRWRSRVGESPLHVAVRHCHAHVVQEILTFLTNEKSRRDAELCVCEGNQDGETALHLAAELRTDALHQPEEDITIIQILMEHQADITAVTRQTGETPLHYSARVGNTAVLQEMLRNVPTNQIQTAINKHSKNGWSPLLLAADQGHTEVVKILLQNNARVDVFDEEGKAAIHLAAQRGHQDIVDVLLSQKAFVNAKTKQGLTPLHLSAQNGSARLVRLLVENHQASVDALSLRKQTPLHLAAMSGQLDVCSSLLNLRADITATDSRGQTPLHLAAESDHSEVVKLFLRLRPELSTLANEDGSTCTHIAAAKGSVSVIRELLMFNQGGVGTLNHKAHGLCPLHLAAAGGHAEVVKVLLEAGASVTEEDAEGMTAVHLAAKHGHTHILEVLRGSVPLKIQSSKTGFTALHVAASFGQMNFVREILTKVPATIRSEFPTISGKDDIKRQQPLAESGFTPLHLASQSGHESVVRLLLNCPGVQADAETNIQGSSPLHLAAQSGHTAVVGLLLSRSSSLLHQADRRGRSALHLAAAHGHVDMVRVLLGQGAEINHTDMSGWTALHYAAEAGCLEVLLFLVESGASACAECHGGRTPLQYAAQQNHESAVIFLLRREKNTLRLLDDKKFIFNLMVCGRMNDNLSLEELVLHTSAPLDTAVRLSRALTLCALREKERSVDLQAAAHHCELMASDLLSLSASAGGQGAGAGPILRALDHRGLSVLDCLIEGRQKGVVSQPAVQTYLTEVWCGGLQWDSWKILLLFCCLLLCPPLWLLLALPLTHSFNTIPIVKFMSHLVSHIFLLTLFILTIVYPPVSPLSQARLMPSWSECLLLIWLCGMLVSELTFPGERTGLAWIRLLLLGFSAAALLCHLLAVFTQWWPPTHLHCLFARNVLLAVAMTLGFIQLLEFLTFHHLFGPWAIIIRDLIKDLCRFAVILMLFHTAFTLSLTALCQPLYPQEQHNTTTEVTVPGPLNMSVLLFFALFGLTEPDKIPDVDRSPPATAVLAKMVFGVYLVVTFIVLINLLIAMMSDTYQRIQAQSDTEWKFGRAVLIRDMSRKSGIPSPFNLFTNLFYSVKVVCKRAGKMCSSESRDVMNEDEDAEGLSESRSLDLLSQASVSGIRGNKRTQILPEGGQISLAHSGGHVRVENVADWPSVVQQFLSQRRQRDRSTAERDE
Sequence of Induced myeloid leukemia cell differentiation protein Mcl-1 (Q07820 whole entry): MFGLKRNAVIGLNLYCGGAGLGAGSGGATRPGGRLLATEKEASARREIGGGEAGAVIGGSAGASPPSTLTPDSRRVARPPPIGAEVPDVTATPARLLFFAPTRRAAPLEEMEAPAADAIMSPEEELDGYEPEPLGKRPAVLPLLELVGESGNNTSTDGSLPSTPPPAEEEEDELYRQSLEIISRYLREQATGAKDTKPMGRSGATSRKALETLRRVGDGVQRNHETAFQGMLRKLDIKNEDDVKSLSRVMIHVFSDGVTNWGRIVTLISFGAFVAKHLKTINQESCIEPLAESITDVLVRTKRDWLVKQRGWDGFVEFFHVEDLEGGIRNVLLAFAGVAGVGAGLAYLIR
Sequence of Beta-galactosidase (Q8VNN2 whole entry): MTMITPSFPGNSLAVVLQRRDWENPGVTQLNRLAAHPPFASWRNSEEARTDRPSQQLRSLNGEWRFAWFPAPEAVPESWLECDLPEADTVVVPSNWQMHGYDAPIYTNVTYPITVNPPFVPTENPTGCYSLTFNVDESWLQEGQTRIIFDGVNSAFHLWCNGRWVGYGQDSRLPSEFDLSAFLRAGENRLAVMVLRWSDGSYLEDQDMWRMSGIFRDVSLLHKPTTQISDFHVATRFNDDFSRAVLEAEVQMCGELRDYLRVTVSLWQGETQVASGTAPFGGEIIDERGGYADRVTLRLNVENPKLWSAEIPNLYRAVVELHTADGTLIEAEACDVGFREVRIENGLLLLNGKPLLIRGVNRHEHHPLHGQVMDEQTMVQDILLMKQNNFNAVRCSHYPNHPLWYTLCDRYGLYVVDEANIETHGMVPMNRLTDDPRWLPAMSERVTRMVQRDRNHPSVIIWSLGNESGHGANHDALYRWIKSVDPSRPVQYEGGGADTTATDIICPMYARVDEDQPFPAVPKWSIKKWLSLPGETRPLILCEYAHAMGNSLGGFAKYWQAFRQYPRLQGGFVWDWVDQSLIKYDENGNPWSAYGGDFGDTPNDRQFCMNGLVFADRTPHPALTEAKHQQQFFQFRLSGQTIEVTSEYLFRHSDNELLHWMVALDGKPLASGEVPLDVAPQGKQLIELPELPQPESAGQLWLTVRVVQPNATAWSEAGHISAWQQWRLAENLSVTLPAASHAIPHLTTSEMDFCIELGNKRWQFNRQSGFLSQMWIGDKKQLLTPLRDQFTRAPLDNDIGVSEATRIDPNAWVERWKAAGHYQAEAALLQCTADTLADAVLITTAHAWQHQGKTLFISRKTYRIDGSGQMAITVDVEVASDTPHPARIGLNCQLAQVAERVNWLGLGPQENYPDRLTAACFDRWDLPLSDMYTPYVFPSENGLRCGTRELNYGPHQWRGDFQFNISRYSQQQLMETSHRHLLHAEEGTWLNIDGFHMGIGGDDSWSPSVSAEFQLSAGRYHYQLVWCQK
Sequence of Transitional endoplasmic reticulum ATPase (Homo sapiens, UniProt P55072) (P55072 whole entry): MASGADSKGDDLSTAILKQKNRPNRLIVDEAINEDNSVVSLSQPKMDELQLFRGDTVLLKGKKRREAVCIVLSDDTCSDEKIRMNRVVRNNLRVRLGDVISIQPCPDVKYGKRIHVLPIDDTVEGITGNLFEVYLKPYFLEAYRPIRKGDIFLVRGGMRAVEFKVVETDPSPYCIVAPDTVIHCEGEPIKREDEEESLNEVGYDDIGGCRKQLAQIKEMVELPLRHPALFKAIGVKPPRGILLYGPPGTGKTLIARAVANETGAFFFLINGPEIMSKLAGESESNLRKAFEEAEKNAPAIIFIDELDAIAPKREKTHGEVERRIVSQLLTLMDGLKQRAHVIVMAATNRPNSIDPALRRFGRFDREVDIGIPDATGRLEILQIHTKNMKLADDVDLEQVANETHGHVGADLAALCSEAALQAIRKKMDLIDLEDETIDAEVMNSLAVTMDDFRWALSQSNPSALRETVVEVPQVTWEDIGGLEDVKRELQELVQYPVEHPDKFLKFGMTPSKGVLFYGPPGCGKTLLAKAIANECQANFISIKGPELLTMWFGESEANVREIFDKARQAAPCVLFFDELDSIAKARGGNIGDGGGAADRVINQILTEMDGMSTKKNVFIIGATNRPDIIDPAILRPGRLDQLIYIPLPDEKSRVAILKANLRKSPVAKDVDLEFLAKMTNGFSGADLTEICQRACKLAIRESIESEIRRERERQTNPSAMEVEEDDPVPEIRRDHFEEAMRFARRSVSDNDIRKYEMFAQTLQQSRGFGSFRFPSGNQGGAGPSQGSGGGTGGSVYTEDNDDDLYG
Sequence of DNA repair and recombination protein RAD54-like (Q92698 whole entry): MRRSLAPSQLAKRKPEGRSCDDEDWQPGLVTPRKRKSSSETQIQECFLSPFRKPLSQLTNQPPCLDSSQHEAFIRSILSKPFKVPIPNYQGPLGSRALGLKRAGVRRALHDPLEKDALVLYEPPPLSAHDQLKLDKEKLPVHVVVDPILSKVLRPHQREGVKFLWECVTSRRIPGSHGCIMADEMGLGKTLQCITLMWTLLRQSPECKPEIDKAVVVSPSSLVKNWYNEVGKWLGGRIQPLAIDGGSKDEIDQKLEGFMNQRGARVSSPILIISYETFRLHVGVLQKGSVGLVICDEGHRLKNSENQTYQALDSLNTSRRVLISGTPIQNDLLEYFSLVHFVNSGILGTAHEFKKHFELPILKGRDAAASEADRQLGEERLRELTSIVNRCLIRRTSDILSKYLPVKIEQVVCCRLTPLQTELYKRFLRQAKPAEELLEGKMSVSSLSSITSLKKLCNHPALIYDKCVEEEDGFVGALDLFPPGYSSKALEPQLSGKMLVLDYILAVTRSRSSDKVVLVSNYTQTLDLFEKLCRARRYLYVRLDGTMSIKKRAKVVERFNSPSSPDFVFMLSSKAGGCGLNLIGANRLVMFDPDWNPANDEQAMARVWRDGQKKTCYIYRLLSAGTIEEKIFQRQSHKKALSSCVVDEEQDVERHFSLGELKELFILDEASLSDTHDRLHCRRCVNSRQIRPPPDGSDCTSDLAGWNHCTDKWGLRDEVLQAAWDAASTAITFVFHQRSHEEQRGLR

Cc1cccc2c1-c1sc(C(=O)NCCCN3CCCC(C)C3)cc1CO2 (stereo not drawn)
CC50 (Vero [1]): 19.4 µM (active)
CC50 (Vero [2]): 6.26 µM (active)
CC50 (Vero [3]): 4.45 µM (active)
IC50 [4]: 6 µM (active)
IC50 [5]: > 20 µM (inactive)
AC50 [6]: 90.1 µM (active)

COc1ccc(-c2cnc(NCc3cc4c(cc3[N+](=O)[O-])OCO4)n2C)cc1
EC50 [7]: > 50 µM (active)

Cc1ccc(NC(=O)c2sccc2-n2cccc2)c(C)c1
IC50 [8]: > 100 µM (active)

COc1cc(S(=O)(=O)N2CCCCCC2)ccc1Cl
EC50 (Mucolipin-3): 1.9 µM (active)
EC50 (Ion channel NompC): > 29.9 µM (not active)

CSC1=NSC2=NC(=O)/C(=C\c3c(C)[nH]c4ccccc34)C(=N)N12
IC50 [9]: > 50 µM (not active)
IC50 [10]: 21.7 µM (not active)

Cc1ccc(NC(=O)c2cc(N3C(=O)C=CC3=O)ccc2Cl)cc1C
IC50 [11]: 5.4 µM (active)
IC50 [12]: 50 µM (inactive)
IC50 (Beta-galactosidase): > 66.6 µM (inactive)
AC50 [13]: 1.5 µM (active)

CCN(CC)C(=O)CC1(c2ccccc2OC)CCOC(C(C)C)C1 (stereo not drawn)
EC50 (Mucolipin-3): 6.96 µM (active)
EC50 (Ion channel NompC): > 29.9 µM (not active)
